Test results taken from article PMC9555560, “Fast relaxing red and near-IR switchable azobenzenes with chalcogen and halogen substituents: periodic trends, tuneable thermal half-lives and chalcogen bonding” (Chemical Science, 2022).

Assays:
Assay type in all cases: physicochemical
[1] = GSH stability study (decay of absorbance in phosphate buffer with 10 mM glutathione); settings: for t1 of 1st order exponential decay fit (decomposition with GSH): 100 mM phosphate buffer containing 10 mM GSH degassed with N2, 298 K; for τ 1/2 (10 mM GSH): 100 mM phosphate buffer pH 7 containing 10 mM GSH, degassed with N2, 298 K, para substituent CH2NH2·TFA
Procedure: Finally, the stability of the X4 derivatives were assessed by exposing them to the highest expected intracellular concentration of glutathione (GSH, 10 mM).[28] This was achieved by treating the Boc-protected amino-methyl derivatives X4-NHBoc (X = F, Cl, Br, I, OMe, SMe and SeMe) with TFA to remove the protecting groups. The resulting ammonium-appended AB derivative was dissolved in N2-degassed 100 mM phosphate buffer at pH 7 containing 10 mM GSH, and the changes in absorbance were monitored over an extended period. […] Strong σ-donating substituents are also proposed to aid diazo lone pair protonation, and subsequent GSH attack.[25]
A 10 mM reduced glutathione (GSH) solution was prepared in degassed 100 mM sodium phosphate buffer (at least 15 minutes of N 2 bubbled through the buffer solution prior to addition to GSH). The absorption of the solution was measured periodically at 25 °C, then fitted to a 1 st Order exponential […]
Equation y = y0 + A1*exp(-(x-x0)
Figure S366. Decomposition of F4-CH2NH2•TFA Conditions: 100 mM phosphate buffer containing 10 mM GSH degassed with N2. T = 298 K. […]

[2] = UV-vis spectra of the E isomers (n → π* absorption maximum); settings: E isomer, DMSO
Source text: The UV-vis spectra of the (E)-X4 derivatives and (E)-X2,m-Y2 are shown in Fig. 3 (analogous spectra for the Z isomers, and deconvoluted spectra are available in the ESI ^†). […] The n → π* transition maximum, λmax, typically followed the order meta-H > –NMe2 > –OMe and ortho-S > Cl > F. It is clear from these experiments that the four ortho X substituents in the X4 derivatives are essential for achieving the deeply red-shifted tails which allows for red/near-IR triggered photo-isomerisation.
(§1) All UV-vis spectra were determined in DMSO solution. Extinction coefficients were determined by recording a UV-vis spectra for the E isomer at 10, 20, 30, 40 µM in DMSO respectively. The absorbance at the maximum of the π - π* transition of the E‐isomers was plotted against concentration (Beer-Lambert plot) to determine the molar extinction coefficient ε. For each slow relaxing compound, the E isomer sample at 40 µM was irradiated with the appropriate wavelength of light to generate the photo-stationary state, and another spectrum was run. This spectrum was normalised to units of ε and overlaid with the dark (100% E isomer) spectrum.

[3] = Half-life of the Z → E thermal isomerisation (UV-vis absorbance followed over time after irradiation); settings: Z → E thermal isomerisation, DMSO, 298 K
Procedure: (§2) The E → Z photo-isomerisation and half-life for the Z → E thermal isomerisation was evaluated for all derivatives (Fig. 7 and Table 1, see ESI ^† for original data). To our surprise, the half-lives for (Z)-X2,m-Y2 derivatives were in the order of hours to days for X = F and Cl: the effect of the meta group was not as drastic as anticipated. We typically observed a ∼4 fold decrease in half-life by substituting H with OMe, and a further 3-fold drop from OMe to NMe2 for X = F, Cl and SEt. The nature of the ortho-substituent appeared to be the main influence on τ1/2 (F > Cl ≫ SEt). However, these predictable trends observed for the meta-substitution allow for precise tuning of thermal half-lives. The photo-stationary states (PSSs) of these derivatives ranged from 48–77% Z isomer (Table 1).
All UV-vis spectra were determined in DMSO solution. […]
Lambert plot) to determine the molar extinction coefficient ε. For each slow relaxing compound, the E isomer sample at 40 µM was irradiated with the appropriate wavelength of light to generate the photo-stationary state, and another spectrum was run. This spectrum was normalised to units of ε and overlaid with the dark (100% E isomer) spectrum. […]
Photo-irradiation of liquid samples was carried out using Thorlabs high-power mounted LEDs (models […]
M530L4 (green, 530 nm); in-house custom built set-ups using optical components supplied by Thorlabs, as described in reference 2
Equation y = y0 + A1*exp(-(x-x0)/t1
Figure S327. Lifetime plot of (Z)-Br4-NHBoc based on following UV-Vis absorbance over time after irradiation with 625 nm light (rt, DMSO). Data consistent with NMR half-life data.
Figure S328. Reversible of switching of I4-NHBoc over time after irradiation with 6 60 nm light (rt, DMSO). Dots : raw data, Line: 1st order Exponential Fit […]

[4] = E → Z photo-isomerisation with LEDs / photo-stationary state (PSS) determination; settings: under irradiation
Procedure: as §2
Remarkably, it was possible to photo-switch the tetra-iodo derivative I4-ester using near-IR light (730 nm) (Fig. 8C). […] Photo-isomerisation was not detected for the ortho-telluro derivatives. This is consistent with findings by Haberhauer and co-workers, who propose that the strong chalcogen bonds in the E isomer of a PhTe-substituted azobenzene lead to dramatic energy differences between the E and Z isomers, which suppresses photoswitching.[43] The photo-stationary states of the halogen X4 derivatives range from 50–84% (Table 1) and could also be determined for the slower relaxing chalcogen derivatives (PSS 46–95%, see Fig. S308–S323 ^† for original data).
as §1, with “spectrum. […]” for “spectrum.”

SMILES	t1 of 1st order exponential decay fit (decomposition with GSH) [1] [s]	τ 1/2 (10 mM GSH) [1] [h]	λ max of n → π* transition [2] [nm]	τ 1/2 [3]	Stability to light [4]
CC(C)(C)OC(=O)NCc1cc(F)c(/N=N/c2c(F)cc(CNC(=O)OC(C)(C)C)cc2F)c(F)c1 [F]	3748 ± 3.403	0.7	–	–	–
C[Te]c1cccc([Te]C)c1/N=N/c1c([Te]C)cccc1[Te]C [(TeMe)4-H]	–	–	518.5	–	–
OCc1cc(I)c(/N=N/c2c(I)cc(CO)cc2I)c(I)c1 [I4-OH]	–	–	500.3	–	–
C[Se]c1cccc([Se]C)c1/N=N/c1c([Se]C)cccc1[Se]C [(SeMe)4-H]	–	–	533.9	80 s	–
N#Cc1cc(I)c(/N=N/c2c(I)cc(C#N)cc2I)c(I)c1 [I4-CN]	–	–	520.8	20 s	–
CC(C)(C)OC(=O)NCc1cc(Cl)c(N=Nc2c(Cl)cc(CNC(=O)OC(C)(C)C)cc2Cl)c(Cl)c1 [Cl4-NHBoc]	–	–	462.6	576000 s	–
COc1cc(CNC(=O)OC(C)(C)C)c(OC)c(F)c1/N=N/c1c(OC)cc(CNC(=O)OC(C)(C)C)c(OC)c1F [(OMe)2F2,m-OMe2-NHBoc]	–	–	425.4	–	unstable to light
COc1cc(N=Nc2cc(OC)c(CNC(=O)OC(C)(C)C)cc2Cl)c(Cl)cc1CNC(=O)OC(C)(C)C [Cl2,m-OMe2]	–	–	475.0	64800 s	–
CC(C)(C)OC(=O)NCc1ccc(N=Nc2ccc(CNC(=O)OC(C)(C)C)cc2Cl)c(Cl)c1 [Cl2,m-H2]	–	–	471.0	122000 s	–
C[Se]c1cc(CNC(=O)OC(C)(C)C)cc([Se]C)c1/N=N/c1c([Se]C)cc(CNC(=O)OC(C)(C)C)cc1[Se]C [(SeMe)4-NHBoc]	–	–	534.3	34 s	–
CCOC(=O)c1cc(SCC)c(/N=N/c2c(SCC)cc(C(=O)OCC)cc2SCC)c(SCC)c1 [(SEt)4-ester]	–	–	590.0	52 s	–
CC(C)(C)OC(=O)NCc1ccc(/N=N/c2ccc(CNC(=O)OC(C)(C)C)cc2N2CCCC2)c(N2CCCC2)c1 [(N(CH2)4)2,m-H]	–	–	530.2	–	–
CCSc1cc(CNC(=O)OC(C)(C)C)c(OC)cc1/N=N/c1cc(OC)c(CNC(=O)OC(C)(C)C)cc1SCC [(SEt)2,m-OMe2]	–	–	464.1	9 m	–
O=C1c2ccccc2C(=O)N1Cc1cc(I)c(/N=N/c2c(I)cc(CN3C(=O)c4ccccc4C3=O)cc2I)c(I)c1 [I4-NPhth]	–	–	511.8	3 m	–
CN(C)c1cc(N=Nc2cc(N(C)C)c(CNC(=O)OC(C)(C)C)cc2F)c(F)cc1CNC(=O)OC(C)(C)C [F2,m-(NMe2)2]	–	–	405.5	57600 s	–
CC(C)(C)OC(=O)NCc1cc(Br)c(N=Nc2c(Br)cc(CNC(=O)OC(C)(C)C)cc2Br)c(Br)c1 [Br]	25249.56343 ± 57.34	5	–	–	–
CC(=O)OCc1cc(I)c(/N=N/c2c(I)cc(COC(C)=O)cc2I)c(I)c1 [I4-OAc]	–	–	501.3	2 m	–
C[Te]c1cccc(F)c1/N=N/c1c(F)cccc1[Te]C [Te2F2-H]	–	–	543	–	–
